These results are taken from patent US8722687B2, “Imidazo [1,2-A]pyridine derivatives as FGFR kinase inhibitors for use in therapy” (Astex Therapeutics Ltd, priority 2009, dated 2014).

Experiment [1] concerns the target T1, Ba/F3-Flt3 cells (Homo sapiens, UniProt P36888, cells depend on it, form not given).
T1 construct: Ba/F3-flt3 − IL3 pIC50; other: without IL3
T1 sequence (P36888 1-993): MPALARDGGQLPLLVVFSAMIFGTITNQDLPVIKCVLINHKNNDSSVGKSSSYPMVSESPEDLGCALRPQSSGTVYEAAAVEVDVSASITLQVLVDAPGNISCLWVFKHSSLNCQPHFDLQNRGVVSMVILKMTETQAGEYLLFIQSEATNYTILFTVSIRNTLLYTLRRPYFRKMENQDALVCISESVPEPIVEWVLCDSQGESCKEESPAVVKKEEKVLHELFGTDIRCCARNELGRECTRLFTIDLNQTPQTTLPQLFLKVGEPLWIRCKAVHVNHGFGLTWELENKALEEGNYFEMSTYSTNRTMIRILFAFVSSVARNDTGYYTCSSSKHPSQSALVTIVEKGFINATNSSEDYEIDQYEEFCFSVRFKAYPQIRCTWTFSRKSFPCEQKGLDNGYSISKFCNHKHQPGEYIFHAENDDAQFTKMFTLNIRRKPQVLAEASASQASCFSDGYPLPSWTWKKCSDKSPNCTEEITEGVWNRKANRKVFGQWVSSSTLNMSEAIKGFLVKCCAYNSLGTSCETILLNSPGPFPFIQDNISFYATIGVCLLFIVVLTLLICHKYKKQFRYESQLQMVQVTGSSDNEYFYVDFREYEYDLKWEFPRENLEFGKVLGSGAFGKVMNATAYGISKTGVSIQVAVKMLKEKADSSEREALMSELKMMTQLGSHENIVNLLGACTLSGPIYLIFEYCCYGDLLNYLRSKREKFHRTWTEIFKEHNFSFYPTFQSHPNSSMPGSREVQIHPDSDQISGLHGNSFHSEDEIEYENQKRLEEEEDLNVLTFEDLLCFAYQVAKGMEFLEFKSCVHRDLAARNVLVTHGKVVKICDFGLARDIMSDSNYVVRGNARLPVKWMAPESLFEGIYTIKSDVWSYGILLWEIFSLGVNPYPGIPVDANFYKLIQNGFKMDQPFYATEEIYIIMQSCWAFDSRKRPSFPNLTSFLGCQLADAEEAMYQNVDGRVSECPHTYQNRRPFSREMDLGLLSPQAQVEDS
The experiment is described as follows: Ba/F3-Flt3 assay (Alamar Blue). The experiment is classed as cell-based, murine. The settings on record: without IL3. From the text:
(§1) Ba/F3, a murine interleukin-3 dependent pro-B cell line is increasingly popular as a model system for assessing both the potency and downstream signaling of kinase oncogenes, and the ability of small-molecule kinase inhibitors to block kinase activity. Facilitated by their growth properties. Ba/F3 cells have recently been adapted to high throughput assay formats for compound profiling. Further, several published approaches show promise in predicting resistance to small-molecule kinase inhibitors elicited by point mutations interfering with inhibitor binding (Ba/F3 cells and their use in kinase drug discovery; Markus Warmuth, Sungjoon Kim, Xiang-ju Gu, Gang Xia and Francisco Adria'n; Curr Opin Oncol 19:55-60).
(§2) Ba/F3-Flt3 cells (cultured in phenol red free RPMI-1640, 10% A FCS and 50 μg/ml Gentamycin at 37° C. and 5% 002) were plated at a density of 10000 cells in a total volume of 180 μl medium in a black TC-treated sterile 96-well plate (Corning). After 24 hours, drugs in different dilutions were added to a final volume of 200 μl and at a final DMSO concentration of 0.2% prior to incubation at 37° C., and 5% CO2.
(§3) After 24 h, to each well 40 μl Alamar Blue solution (Aldrich) was added and the cells were further incubated for 4 hours at 37° C. Fluorescence (ex. 544, em. 590 nm) was measured using a fluorescence reader (Labsystems) and IC50's were calculated.
(§4) In the condition containing IL3, 10 ng/ml of murine IL3 (PeproTech) was added during compound incubation.

Experiment [2] concerns Ba/F3-Flt3 cells. The experiment in a line: Ba/F3-Flt3 assay (Alamar Blue). The experiment is classed as cell-based, murine. Particulars: Mus musculus, 24 h; with 10 ng/ml murine IL3; read-out: Ba/F3-flt3 + IL3 pIC50 (converted).
Description: as §1, §2, §3, §4

Turning to `CC(C)Oc1cc(NC(=O)NCC(F)(F)F)cc(-c2cnc3cc(OCCO)ccn23)c1` [Compound F-17, 1-{3-[7-(2-Hydroxy-ethoxy)-imidazo[1,2-a]pyridin-3-yl]-5-isopropoxy-phenyl}-3-(2,2,2-trifluoro-ethyl)-urea], in experiment [1], the “Ba/F3-flt3 − IL3 pIC50” value was <5. Also, in experiment [2], the IC50 is > 10 µM.

Take `Cc1cn(-c2ccn3c(-c4cc(NC(=O)NCC(F)(F)F)cc(OC(C)C)c4)cnc3c2)cn1` [Compound F-28, 1-{3-Isopropoxy-5-[7-(4-methylimidazol-1-yl)-imidazo[1,2-a]pyridin-3-yl]-phenyl}-3-(2,2,2-trifluoro-ethyl)-urea]: the “Ba/F3-flt3 − IL3 pIC50” value in experiment [1] is given as <5. Moreover, the IC50 in experiment [2] was > 10 µM.

As for `CC(C)Oc1cc(NC(=O)NCC(F)(F)F)cc(-c2cnc3cc(-c4ncccn4)ccn23)c1` [Compound F-2, 1-[3-Isopropoxy-5-(7-pyrimidin-2-yl-imidazo[1,2-a]pyridin-3-yl)-phenyl]-3-(2,2,2-trifluoro-ethyl)-urea], in experiment [1], the “Ba/F3-flt3 − IL3 pIC50” value is on record as <5. For the same molecule, in experiment [2], the IC50 was > 10 µM.
